Each compound was assayed against EGFR (UniProt P00533).
Chain of EGFR (P00533 whole entry, looked up): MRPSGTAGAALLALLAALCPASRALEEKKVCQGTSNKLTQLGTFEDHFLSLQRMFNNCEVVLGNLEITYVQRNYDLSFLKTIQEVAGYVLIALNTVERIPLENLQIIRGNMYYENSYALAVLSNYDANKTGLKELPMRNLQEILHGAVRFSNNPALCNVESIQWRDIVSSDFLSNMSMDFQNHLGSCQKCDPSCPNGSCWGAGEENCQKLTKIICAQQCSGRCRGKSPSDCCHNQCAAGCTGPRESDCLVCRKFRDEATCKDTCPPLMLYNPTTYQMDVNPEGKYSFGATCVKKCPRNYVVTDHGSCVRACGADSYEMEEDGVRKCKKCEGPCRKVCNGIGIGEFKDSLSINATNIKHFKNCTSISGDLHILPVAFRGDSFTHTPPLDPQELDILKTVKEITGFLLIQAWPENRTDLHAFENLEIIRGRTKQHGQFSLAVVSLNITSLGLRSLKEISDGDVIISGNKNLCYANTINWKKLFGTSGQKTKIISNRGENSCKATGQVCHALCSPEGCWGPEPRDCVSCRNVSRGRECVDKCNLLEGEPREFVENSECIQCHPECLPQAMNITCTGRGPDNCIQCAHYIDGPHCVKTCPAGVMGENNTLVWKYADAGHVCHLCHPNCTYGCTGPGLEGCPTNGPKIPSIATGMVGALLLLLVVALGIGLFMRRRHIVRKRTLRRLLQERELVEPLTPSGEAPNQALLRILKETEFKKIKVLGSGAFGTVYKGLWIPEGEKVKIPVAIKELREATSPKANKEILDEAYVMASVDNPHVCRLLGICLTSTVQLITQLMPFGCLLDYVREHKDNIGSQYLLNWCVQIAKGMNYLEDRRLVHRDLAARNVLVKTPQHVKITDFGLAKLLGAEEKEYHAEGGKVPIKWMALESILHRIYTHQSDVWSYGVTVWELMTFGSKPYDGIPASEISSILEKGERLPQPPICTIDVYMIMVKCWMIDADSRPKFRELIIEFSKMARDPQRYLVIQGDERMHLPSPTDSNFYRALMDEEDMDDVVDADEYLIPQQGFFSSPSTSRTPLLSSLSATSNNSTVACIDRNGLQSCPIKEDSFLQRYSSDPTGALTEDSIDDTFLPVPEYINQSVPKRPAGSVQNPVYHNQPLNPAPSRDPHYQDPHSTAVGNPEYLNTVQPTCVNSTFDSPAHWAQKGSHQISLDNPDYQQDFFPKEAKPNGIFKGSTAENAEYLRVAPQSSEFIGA

IC50, ≤ 1000 nM:
COc1ccc(OC)c(S(=O)(=O)Nc2ncnc3cc(OCCN4CCCCC4)c(OC)cc23)c1
CCN(CC)CCOc1cc2ncnc(NS(=O)(=O)c3ccc(F)cc3)c2cc1OC
COc1cc2c(NS(=O)(=O)c3ccc(Cl)s3)ncnc2cc1OCCCN(C)C
COc1cc2c(NS(=O)(=O)c3cc(Cl)cc(Cl)c3)ncnc2cc1OCCN1CCOCC1
CCN(CC)CCOc1cc2ncnc(NS(=O)(=O)c3cccc4cccnc34)c2cc1OC
CCN(CC)CCOc1cc2ncnc(NS(=O)(=O)c3ccc(C(C)(C)C)cc3)c2cc1OC
COc1cc2c(NS(=O)(=O)c3ccccc3)ncnc2cc1OC1CCN(C)CC1
COc1cc2c(NS(=O)(=O)c3ccccc3Cl)ncnc2cc1OCCN1CCOCC1
CCN(CC)CCOc1cc2ncnc(NS(=O)(=O)c3ccc(OC(F)(F)F)cc3)c2cc1OC
COc1cc2c(NS(=O)(=O)c3ccc(Sc4cccs4)s3)ncnc2cc1OCCCN(C)C
COc1ccc(S(=O)(=O)Nc2ncnc3cc(OCCN4CCOCC4)c(OC)cc23)cc1OC
COc1cc2c(NS(=O)(=O)c3ccc(F)cc3)ncnc2cc1OC1CCN(C)CC1
COc1cc2c(NS(=O)(=O)c3ccc(Sc4cccs4)s3)ncnc2cc1OC1CCN(C)CC1
COc1cc2c(NS(=O)(=O)c3ccc(OC(F)(F)F)cc3)ncnc2cc1OCCN1CCCCC1
COc1cc2c(NS(=O)(=O)c3cc(Cl)c(Cl)s3)ncnc2cc1OCCN1CCN(C)CC1
COc1cc2c(NS(=O)(=O)c3ccc(F)cc3)ncnc2cc1OCCN1CCCCC1
COc1cc2c(NS(=O)(=O)c3ccc(Sc4ccccc4)s3)ncnc2cc1OCCCN(C)C
COc1cc2c(NS(=O)(=O)c3ccccc3Br)ncnc2cc1OC1CCN(C)CC1
COc1ccc(OC)c(S(=O)(=O)Nc2ncnc3cc(OCCCN(C)C)c(OC)cc23)c1
CCN(CC)CCOc1cc2ncnc(NS(=O)(=O)c3ccc(OC)cc3)c2cc1OC
COc1ccc(S(=O)(=O)Nc2ncnc3cc(OC4CCN(C)CC4)c(OC)cc23)cc1OC
COc1ccc(OC)c(S(=O)(=O)Nc2ncnc3cc(OCCN4CCN(C)CC4)c(OC)cc23)c1
CCN(CC)CCOc1cc2ncnc(NS(=O)(=O)c3cc(Cl)c(Cl)s3)c2cc1OC
COc1cc2c(NS(=O)(=O)Cc3ccccc3)ncnc2cc1OCCN1CCN(C)CC1
COc1cc2c(NS(=O)(=O)c3ccc(Cl)cc3)ncnc2cc1OC1CCN(C)CC1
COc1cc2c(NS(=O)(=O)Cc3ccccc3)ncnc2cc1OCCN1CCOCC1
CCN(CC)CCOc1cc2ncnc(NS(=O)(=O)c3ccc(Sc4cccs4)s3)c2cc1OC
COc1cc2c(NS(=O)(=O)c3cccc(Cl)c3)ncnc2cc1OCCCN(C)C
COc1cc2c(NS(=O)(=O)c3cc(Cl)c(Cl)s3)ncnc2cc1OCCCN(C)C
COc1cc2c(NS(=O)(=O)c3ccccc3Cl)ncnc2cc1OCCN1CCCCC1
COc1cc2c(NS(=O)(=O)c3cc(Cl)cc(Cl)c3)ncnc2cc1OCCCN1CCOCC1
COc1cc2c(NS(=O)(=O)c3ccccc3Cl)ncnc2cc1OCCCN1CCOCC1
COc1cc2c(NS(=O)(=O)c3ccc(C)cc3)ncnc2cc1OCCN1CCOCC1
COc1cc2c(NS(=O)(=O)c3ccc(Cl)cc3)ncnc2cc1OCCN1CCCCC1
COc1cc2c(NS(=O)(=O)c3cccc(Cl)c3)ncnc2cc1OC1CCN(C)CC1
COc1cc2c(NS(=O)(=O)c3sc(C)nc3C)ncnc2cc1OCCN1CCOCC1
CCN(CC)CCOc1cc2ncnc(NS(=O)(=O)c3ccc(Br)cc3)c2cc1OC
COc1cc2c(NS(=O)(=O)c3cccc(Br)c3)ncnc2cc1OCCN1CCCCC1
COc1ccc(S(=O)(=O)Nc2ncnc3cc(OCCN4CCN(C)CC4)c(OC)cc23)cc1OC
COc1cc2c(NS(=O)(=O)c3ccccc3)ncnc2cc1OCCN1CCN(C)CC1
COc1ccc(S(=O)(=O)Nc2ncnc3cc(OCCCN4CCOCC4)c(OC)cc23)cc1
COc1cc2c(NS(C)(=O)=O)ncnc2cc1OCCN1CCOCC1
COc1cc2c(NS(=O)(=O)c3ccccc3Cl)ncnc2cc1OCCCN(C)C
COc1cc2c(NS(=O)(=O)c3ccc4ccccc4c3)ncnc2cc1OCCCN(C)C
COc1cc2c(NS(=O)(=O)c3ccccc3)ncnc2cc1OCCCN1CCOCC1
COc1ccc(OC)c(S(=O)(=O)Nc2ncnc3cc(OC4CCN(C)CC4)c(OC)cc23)c1
COc1cc2c(NS(=O)(=O)c3ccc(F)cc3)ncnc2cc1OCCCN(C)C
COc1cc2c(NS(=O)(=O)c3ccccc3Br)ncnc2cc1OCCN1CCCCC1
COc1cc2c(NS(=O)(=O)c3c(C)noc3C)ncnc2cc1OCCN1CCOCC1
CCN(CC)CCOc1cc2ncnc(NS(=O)(=O)c3cc(Cl)cc(Cl)c3)c2cc1OC
COc1cc2c(NS(=O)(=O)c3ccc(OC(F)(F)F)cc3)ncnc2cc1OCCCN(C)C
COc1cc2c(NS(=O)(=O)c3ccccc3)ncnc2cc1OCCCN(C)C
COc1ccc(S(=O)(=O)Nc2ncnc3cc(OCCN4CCOCC4)c(OC)cc23)cc1
COc1ccc(S(=O)(=O)Nc2ncnc3cc(OCCCN(C)C)c(OC)cc23)cc1
COc1cc2c(NS(=O)(=O)c3ccc(C(C)(C)C)cc3)ncnc2cc1OCCN1CCOCC1
CCN(CC)CCOc1cc2ncnc(NS(=O)(=O)c3ccccc3C)c2cc1OC
CCN(CC)CCOc1cc2ncnc(NS(=O)(=O)c3ccccc3)c2cc1OC
CCN(CC)CCOc1cc2ncnc(NS(=O)(=O)c3ccc(OC)c(OC)c3)c2cc1OC
COc1cc2c(NS(=O)(=O)c3ccccc3C)ncnc2cc1OCCN1CCOCC1
COc1cc2c(NS(=O)(=O)c3ccccc3C#N)ncnc2cc1OCCCN1CCOCC1
COc1cc2c(NS(=O)(=O)c3ccccc3C)ncnc2cc1OCCN1CCN(C)CC1
